Values quoted from earlier work, collected in patent US12060347B2 (BRISTOL-MYERS SQUIBB COMPANY, priority 2016, dated 2024).

Key:
[1] = biological target: T1, protease-activated receptor type 4 (PAR4) (Homo sapiens, UniProt Q96RI0); settings: abstract of Lee et al. 2001; cited from earlier work
T1 sequence (Q96RI0 18-385): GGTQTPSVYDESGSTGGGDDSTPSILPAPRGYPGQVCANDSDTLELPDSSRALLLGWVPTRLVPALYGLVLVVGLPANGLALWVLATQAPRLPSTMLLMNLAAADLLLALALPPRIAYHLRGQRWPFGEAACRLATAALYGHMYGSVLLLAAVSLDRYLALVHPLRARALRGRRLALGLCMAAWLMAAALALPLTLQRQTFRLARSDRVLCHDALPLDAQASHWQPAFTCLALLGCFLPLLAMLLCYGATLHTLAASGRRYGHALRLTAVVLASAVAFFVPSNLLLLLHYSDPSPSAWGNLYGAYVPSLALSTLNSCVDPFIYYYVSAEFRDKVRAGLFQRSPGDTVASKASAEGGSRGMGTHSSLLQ

[2] = biological target: T2, PAR1 (Homo sapiens, UniProt P25116); settings: ACS patients, TRACER phase III trial; cited from earlier work
T2 sequence (P25116 22-425): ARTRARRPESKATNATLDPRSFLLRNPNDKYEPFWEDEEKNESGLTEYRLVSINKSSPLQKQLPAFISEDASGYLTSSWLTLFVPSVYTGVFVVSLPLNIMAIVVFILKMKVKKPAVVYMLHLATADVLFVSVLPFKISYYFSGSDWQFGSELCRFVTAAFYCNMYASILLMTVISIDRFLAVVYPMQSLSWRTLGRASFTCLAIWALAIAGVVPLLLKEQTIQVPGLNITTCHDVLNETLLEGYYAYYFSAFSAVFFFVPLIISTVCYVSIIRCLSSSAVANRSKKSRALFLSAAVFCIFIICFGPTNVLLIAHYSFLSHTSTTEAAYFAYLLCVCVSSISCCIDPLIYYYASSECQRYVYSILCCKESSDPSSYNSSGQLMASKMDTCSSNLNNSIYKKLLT

| Compound | inhibition of PAR4-dependent platelet activation [1] | cardiovascular events [2] | risk of major bleeding [2] |
| --- | --- | --- | --- |
| CCOC(=O)c1ccc(-c2nn(Cc3ccccc3)c3ccccc23)cc1 [YD-3, ethyl 4-(1-benzyl-1H-indazol-3-yl)benzoate] | selective and potent inhibitor |  |  |
| CCOC(=O)N[C@@H]1CC[C@@H]2[C@@H](C1)C[C@H]1C(=O)O[C@H](C)[C@H]1[C@H]2/C=C/c1ccc(-c2cccc(F)c2)cn1 [vorapaxar] |  | did not significantly reduce | significantly increased |
